Like-named read-outs stand apart in the source and are kept apart here. Marks after values point to notes of the source that are not given here.
How the values were obtained:
PGE2 [1] = system: PGE2; set-up: method as in PMID 36166898; details: LPS-stimulated RAW cells; cited from earlier work
COX-2 [2] = biological target: T1, COX-2 (Homo sapiens, UniProt P35354); test: In vitro COX-2 inhibition (COX-2 Inhibitor Screening Kit-K547, Biovision); format: biochemical; details: for COX-2 S.I.: COX-1 IC50/COX-2 IC50; for IC50: mean of six values ± standard deviation
T1 construct: purchased Biovision K547
T1 sequence (P35354 18-604): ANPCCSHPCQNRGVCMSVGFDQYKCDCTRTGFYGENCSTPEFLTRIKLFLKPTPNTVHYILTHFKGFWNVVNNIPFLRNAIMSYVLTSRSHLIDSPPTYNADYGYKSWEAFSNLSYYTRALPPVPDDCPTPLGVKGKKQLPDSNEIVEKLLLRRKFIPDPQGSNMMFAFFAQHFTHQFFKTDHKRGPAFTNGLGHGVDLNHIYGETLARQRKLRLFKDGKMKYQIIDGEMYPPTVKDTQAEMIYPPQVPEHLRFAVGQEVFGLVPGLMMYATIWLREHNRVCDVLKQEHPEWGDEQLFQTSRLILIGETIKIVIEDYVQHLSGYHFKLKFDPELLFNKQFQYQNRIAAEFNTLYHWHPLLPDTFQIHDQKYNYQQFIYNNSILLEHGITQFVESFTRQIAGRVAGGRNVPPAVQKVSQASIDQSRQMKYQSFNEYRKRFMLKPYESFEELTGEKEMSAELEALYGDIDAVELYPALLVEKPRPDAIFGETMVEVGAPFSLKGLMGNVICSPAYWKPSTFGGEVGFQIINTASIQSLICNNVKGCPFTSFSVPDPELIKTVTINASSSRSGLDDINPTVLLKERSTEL
Description: (§1) The IC50 value of the tested compounds was determined.
COX-2 inhibitor Screening Protocol: Dissolve the tested compounds in DMSO. Use COX Assay Buffer to dilute the relevant test concentration by 10X before using. Place 10 µl of diluted test inhibitor or Assay Buffer in the specified wells instead of the sample screen (S) or enzyme control (EC; no inhibitor). […] Before using, combine 2 µl of COX Cofactor with 398 µl of COX Assay Buffer to dilute COX Cofactor 200 times. Blend thoroughly. Just before using, mix 5 µl of the provided arachidonic acid with 5 µl of NaOH to make the arachidonic acid solution. Combine quickly using a vortex. To dilute the arachidonic acid/NaOH solution 10 times, add 90 µl of water. There should be 80 µl of reaction mix in each well. Using a multi-channel pipette, add 10 µl of diluted arachidonic acid/NaOH solution into each well to initiate the reactions concurrently.

COX-1 = biological target: T2, COX-1 (Ovis aries, UniProt P05979); test: In vitro COX-1 inhibition (COX-1 Inhibitor Screening Kit-K548, Biovision); format: biochemical; details: mean of six values ± standard deviation
T2 construct: purchased Biovision K548
T2 sequence (P05979 25-600): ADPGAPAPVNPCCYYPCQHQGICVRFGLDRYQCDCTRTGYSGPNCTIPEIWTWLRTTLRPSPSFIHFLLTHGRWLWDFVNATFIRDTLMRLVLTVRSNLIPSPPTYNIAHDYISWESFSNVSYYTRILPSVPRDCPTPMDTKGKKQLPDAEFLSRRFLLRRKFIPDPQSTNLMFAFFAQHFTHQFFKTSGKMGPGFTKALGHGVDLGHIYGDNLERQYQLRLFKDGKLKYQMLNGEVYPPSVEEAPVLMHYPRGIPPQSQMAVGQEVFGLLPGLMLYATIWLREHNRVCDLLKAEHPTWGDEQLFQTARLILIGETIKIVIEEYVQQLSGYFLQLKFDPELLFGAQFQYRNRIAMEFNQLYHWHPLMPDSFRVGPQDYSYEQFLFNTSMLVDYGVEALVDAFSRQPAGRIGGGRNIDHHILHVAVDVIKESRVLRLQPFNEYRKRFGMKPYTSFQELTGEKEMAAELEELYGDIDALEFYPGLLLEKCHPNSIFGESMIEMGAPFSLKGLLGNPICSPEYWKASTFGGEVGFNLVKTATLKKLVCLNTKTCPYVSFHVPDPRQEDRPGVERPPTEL
Description: as §1
COX-1 inhibitor Screening Protocol: Dissolve the tested compounds in DMSO. Use COX assay buffer to dilute the relevant test concentration by 10X before using. Place 10 µl of diluted test inhibitor or assay buffer in the specified wells instead of the sample screen (S) or enzyme control (EC; no inhibitor). To one of the wells, add 2 µl of SC560 and 8 µl of COX Assay Buffer as an inhibitor control (IC). Before using, combine 2 µl of COX Cofactor with 398 µl of COX Assay Buffer to dilute COX cofactor 200 times. Blend thoroughly. Just before using, mix 5 µl of the provided arachidonic acid with 5 µl of NaOH to make the arachidonic acid solution. Combine quickly using a vortex. To dilute the arachidonic acid/NaOH solution 10 times, add 90 µl of water. There should be 80 µl of reaction mix in each well. Using a multi-channel pipette, add 10 µl of diluted arachidonic acid/NaOH solution to each well to initiate all the reactions at once.

COX-2 [3] = biological target: T1, COX-2; details: cited from earlier work
PGE2 [4] = test: PGE2 production in LPS-activated RAW 264.7 macrophages (ELISA); details: Mus musculus, RAW264.7, read-out: PGE2 IC50
MTS cytotoxicity assay = format: cell-based; details: mouse, RAW 264.7 macrophages (heading: LPS-induced), read-out: Cytotoxicity IC50 (LPS-induced RAW 264.7 cells)
Description: Using Dulbecco’s Modified Eagle Medium (DMEM, Biowest L0060) supplemented with 10% foetal bovine serum (FBS) (Biowest, S1810) and 1% anti-biotic and anti-mycotic (Biowest, L0010-100), the RAW264.7 macrophage cell line (ATCC ® TIB-71TM) was cultivated. The cells were then incubated at 37 °C with 5% CO2 until they were confluent, which should be between 70 and 80%. After two to three days, the growth media was regularly changed. Trypsin–EDTA was then used to wash and collect the cells (Biowest, L0931-500).
The MTS (3-(4,5-dimethylthiazol-2-yl)-5-(3-carboxymethoxy-phenyl)-2-(4-sulfophenyl)-2H-tetrazolium) test (Promega, ab197010) was used to determine cell viability. In short, a 96-well plate was seeded with 5 × 10^3 cells per well, and the cells were then incubated for 24 h at 37 °C and 5% CO2. The cells were then re-incubated for 24 h at 37 °C and 5% CO2 after the medium was discarded and replaced with 180 µl of fresh growth media and 20 µl of sample (1000 ug, 250 ug, 63 ug, 16 ug, and 4 ug µg/mL). 20 µl of MTS was then added to each well, and the mixture was incubated for three hours at 37 °C with 5% CO2. […] Control cells were those that received no treatment.

[5] = system: carrageenan-induced rat paw edema; test: Carrageenan-induced rat paw edema assay; format: in vivo; details: 25 mg/kg
TNF-α = TNF-α production in LPS-activated RAW 264.7 macrophages (ELISA); details: Mus musculus, RAW264.7, read-out: TNF-α IC50
[6] = system: carrageenan-induced rat paw edema; test: Carrageenan-induced rat paw edema assay; format: in vivo; details: for Paw edema thickness ± SEM / Paw edema % inhibition: rat
Description: As previously described, paw thickness was evaluated at 1, 3, and 5 h following carrageenan injection at a dose of 50 mg/kg.

gastric mucosa = test: Ulcerogenic liability (ulcer index); format: in vivo; details: 50 mg/kg orally, three successive days, rats
Description: […]. […] Rats were divided into 7 groups and fasted for 18 h before drug administration. The control group received the vehicle (2.5% Tween 80). […] After 2 h, animals were fed. Rats were given the required dose orally for three successive days. After 2 h of the last dose, rats were sacrificed; the stomach of each rat was removed then opened along the greater curvature and rinsed with saline. In order to examine the stomach, it was stretched by pins on a corkboard. The gastric mucosa was carefully inspected for the occurrence of ulcers with the aid of an illuminated magnifying lens (l0x), then ulcer index was calculated according to the method described by Cho and Ogle. Lesions were counted and measured along the greater diameter using transparent ruler. Every five hemorrhagic spots were considered equivalent to 1 mm of ulcer. The ulcer index (mm) was calculated from the sum of the total length of ulcers and hemorrhagic spots in each stomach.

iNOS = test: Inducible nitric oxide synthase (iNOS) inhibition in LPS-induced RAW 264.7 cells (ELISA); format: cell-based; details: Mus musculus, RAW264.7
Description: NO is produced from L-arginine by iNOS and is utilized in a variety of cell signaling processes. An inducible member of the NOS family, iNOS is increased during pro-inflammatory cytokine activity as a host-defense mechanism. A commercially available quantitative ELISA kit (ab253219 Mouse iNOS Simple Step ELISA® Kit) will be used to evaluate the iNOS enzyme activity of the substances in the cell lysate in accordance with the manufacturer’s instructions.

[7] = 3 h after carrageenan, 50 mg/kg
[8] = 5 h after carrageenan, 50 mg/kg

In the case of `O=C(O)COc1ccc(C(=O)/C=C/c2cn(-c3ccccc3)nc2-c2ccc([N+](=O)[O-])cc2)cc1` [Compound 10], the IC50 (PGE2 [1]) is listed as 11 µM.

In the case of `CCOC(=O)COc1ccc(C2=NN(c3ccc(S(C)(=O)=O)cc3)C(c3ccccc3)C2)cc1` (centres unmarked) [Compound 15a, Ethyl 2-(4-(1-(4-(methylsulfonyl)phenyl)-5-phenyl-4,5-dihydro-1H-pyrazol-3-yl)phenoxy) acetate], the “COX-2 S.I.” value (COX-2 [2]) is reported as 1.90, the IC50 (COX-2 [2]) is reported as 3.9 ± 0.129 µM and the IC50 (COX-1) is reported as 7.42 ± 0.45 µM.

For `CCOC(=O)COc1ccc(C2=NN(c3ccc(S(C)(=O)=O)cc3)C(c3ccc(C)cc3)C2)cc1` (centres unmarked) [Compound 15b, Ethyl 2-(4-(1-(4-(methylsulfonyl)phenyl)-5-(p-tolyl)-4,5-dihydro-1H-pyrazol-3-yl)phenoxy)acetate], the “COX-2 S.I.” value (COX-2 [2]) was 5.89, the IC50 (COX-2 [2]) was 1.94 ± 0.064 µM and the IC50 (COX-1) was 11.4 ± 0.42 µM.

With `CCOC(=O)COc1ccc(C2=NN(c3ccc(S(C)(=O)=O)cc3)C(c3ccc([N+](=O)[O-])cc3)C2)cc1` (centres unmarked) [Compound 15f, Ethyl 2-(4-(1-(4-(methylsulfonyl)phenyl)-5-(4-nitrophenyl)-4,5-dihydro-1H-pyrazol-3-yl)phenoxy)acetate] the “COX-2 S.I.” value (COX-2 [2]) was 4.30, the IC50 (COX-2 [2]) was 1.59 ± 0.052 µM and the IC50 (COX-1) was 6.83 ± 0.25 µM.

In the case of `Cc1ccc(N/N=C2\C(=N)N(c3ccc(S(N)(=O)=O)cc3)N=C2N)cc1` [Compound 8a], the “COX-2 selectivity index (S.I.)” value (COX-2 [3]) is listed as 8.41.

In the case of `Cc1ccc(-c2cc(C(F)(F)F)nn2-c2ccc(S(N)(=O)=O)cc2)cc1` [Celecoxib, celecoxib, reference compound], the IC50 (PGE2 [4]) is reported as 0.38 ± 0.027 µM, the IC50 at 24 h (MTS cytotoxicity assay) is reported as 149 ± 5.3 µM and the “% inhibition (edema)” value [5] is reported as 34.97%. For the same compound, the IC50 (TNF-α) was 0.87 ± 0.03 µM, the “% inhibition (edema)” value ([6]; 50 mg/kg) was 97.48% and the “Paw edema thickness ± SEM” value ([6]; 1 h after carrageenan, 50 mg/kg) was 3.43 ± 0.004 mm. The “Paw edema % inhibition” value [6, 7] was 38.3%, the “Paw edema thickness ± SEM” value [6, 7] was 3.1 ± 0.011 mm and the “Paw edema % inhibition” value [6, 8] was 56.3%. The “Paw edema thickness ± SEM” value [6, 8] was 2.52 ± 0.0095 mm, the ED50 ([6]; Rattus norvegicus, dose producing 50% edema inhibition) was 40.4 mg/kg and the “Average no of ulcer” value (gastric mucosa) was 0.48 ± 0.015***^b. For the same compound, the Average severity (gastric mucosa) was 0.66 ± 0.026***^b and the IC50 (iNOS) was 0.48 ± 0.04 µM.

With `CCOC(=O)COc1ccc(C2=NN(c3ccc(S(C)(=O)=O)cc3)C(c3ccc(Cl)cc3)C2)cc1` (centres unmarked) [Compound 15e, Ethyl 2-(4-(5-(4-chlorophenyl)-1-(4-(methylsulfonyl)phenyl)-4,5-dihydro-1H-pyrazol-3-yl)phenoxy)acetate] the “COX-2 S.I.” value (COX-2 [2]) was 4.05, the IC50 (COX-2 [2]) was 0.742 ± 0.025 µM and the IC50 (COX-1) was 3.01 ± 0.12 µM.

For `N=C1/C(=N\Nc2ccc(Cl)cc2)C(N)=NN1c1ccc(S(N)(=O)=O)cc1` [Compound 8b], the “COX-2 selectivity index (S.I.)” value (COX-2 [3]) is listed as 10.55.

In the case of `CCOC(=O)COc1ccc(C2=NN(c3ccc(S(C)(=O)=O)cc3)C(c3ccccc3Br)C2)cc1` (centres unmarked) [Compound 15 g, Ethyl 2-(4-(5-(2-bromophenyl)-1-(4-(methylsulfonyl)phenyl)-4,5-dihydro-1H-pyrazol-3-yl)phenoxy)acetate], the “COX-2 S.I.” value (COX-2 [2]) is reported as 15.07, the IC50 (COX-2 [2]) is reported as 0.575 ± 0.019 µM and the IC50 (COX-1) is reported as 8.59 ± 0.33 µM.
